This note sets out measurements from ChEMBL document CHEMBL5042471, “Development and Application of Subtype-Selective Fluorescent Antagonists for the Study of the Human Adenosine A1 Receptor in Living Cells” (J Med Chem, 2021).

In general, Kd refers to the free concentration of one partner at which half of the binding sites on the other are occupied at equilibrium, for simple one-to-one binding. Read a high Kd as weaker binding. As usually defined, the Ki is a measure of affinity in units of concentration, obtained from inhibition or displacement. Low values mean tighter binding, high ones weaker binding. As a reminder, the EC50 is the concentration giving half of the maximal effect.

Test [1] deals with T1, Adenosine receptor A3 (Homo sapiens, UniProt P0DMS8).
T1 sequence (P0DMS8 whole entry): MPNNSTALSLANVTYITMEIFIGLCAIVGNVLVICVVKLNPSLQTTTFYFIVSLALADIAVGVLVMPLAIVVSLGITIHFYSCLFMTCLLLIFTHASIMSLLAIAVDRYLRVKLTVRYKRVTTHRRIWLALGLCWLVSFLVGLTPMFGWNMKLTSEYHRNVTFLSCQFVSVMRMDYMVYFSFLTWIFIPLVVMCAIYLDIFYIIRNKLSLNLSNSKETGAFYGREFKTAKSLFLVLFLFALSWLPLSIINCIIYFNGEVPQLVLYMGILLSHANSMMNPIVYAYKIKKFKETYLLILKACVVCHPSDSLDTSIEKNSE
In words: Antagonist activity at N-terminal NLuc tagged human A3 adenosine receptor. The class given is functional.

Test [2] deals with T2, Adenosine receptor A1 (Homo sapiens, UniProt P30542).
T2 sequence (P30542 whole entry): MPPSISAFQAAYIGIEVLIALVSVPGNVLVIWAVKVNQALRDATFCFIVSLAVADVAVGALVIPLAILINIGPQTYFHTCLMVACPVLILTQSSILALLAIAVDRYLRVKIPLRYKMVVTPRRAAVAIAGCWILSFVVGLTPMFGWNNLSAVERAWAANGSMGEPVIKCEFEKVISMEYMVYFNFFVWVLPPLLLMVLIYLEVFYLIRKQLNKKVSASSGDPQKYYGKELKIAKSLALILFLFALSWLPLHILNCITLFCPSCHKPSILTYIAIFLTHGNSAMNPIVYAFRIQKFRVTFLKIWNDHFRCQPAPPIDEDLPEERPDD
In words: Binding affinity to N-terminal NLuc tagged human A1 adenosine receptor expressed in Flp-In-CHO cells by competitive binding assay. The class given is cell-based.

The target of test [3] is T1, Adenosine receptor A3. The test is described as follows: Agonist activity at A3 adenosine receptor (unknown origin). The class given is functional.
For test [4], the target named is T1, Adenosine receptor A3. In words: Agonist activity at human A3 adenosine receptor expressed in Flp-In-CHO cells assessed as calcium influx by competitive binding assay. In kind it is functional, cell-based.
For test [5], the target named is T3, Adenosine receptor A1 (Rattus norvegicus, UniProt P25099).
T3 sequence (P25099 whole entry): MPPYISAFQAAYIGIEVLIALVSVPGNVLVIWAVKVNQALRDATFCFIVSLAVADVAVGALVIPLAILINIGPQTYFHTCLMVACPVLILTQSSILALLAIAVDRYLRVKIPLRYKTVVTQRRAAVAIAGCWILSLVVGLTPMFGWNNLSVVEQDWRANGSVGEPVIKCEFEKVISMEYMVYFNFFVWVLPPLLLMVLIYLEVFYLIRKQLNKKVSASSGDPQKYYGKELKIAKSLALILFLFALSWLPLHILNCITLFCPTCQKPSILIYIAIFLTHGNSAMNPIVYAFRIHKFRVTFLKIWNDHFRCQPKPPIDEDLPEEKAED
The test is described as follows: Binding affinity to N-terminal NLuc tagged rat A1 adenosine receptor expressed in Flp-In-CHO cells by competitive binding assay. In kind it is cell-based.

In the case of `CCCn1c(=O)c2[nH]c(-c3ccc(OCC(=O)NCCNC(=O)CCCCNC(=O)COc4ccc(/C=C/C5=[N+]6C(=Cc7ccc(-c8cccs8)n7[B-]6(F)F)C=C5)cc4)cc3)nc2n(CCC)c1=O`, the Kd on Adenosine receptor A3 [1] was 30.9 nM. On Adenosine receptor A1 [2], the inhibition constant (Ki) was 9.33 nM.
Take `O=C(CCCCCNC(=O)COc1ccc(/C=C/C2=[N+]3C(=Cc4ccc(-c5cccs5)n4[B-]3(F)F)C=C2)cc1)NCCCCNc1ncnc2c1ncn2[C@@H]1O[C@H](CO)[C@@H](O)[C@H]1O`: the EC50 was 50.1 nM at Adenosine receptor A3 [3] and 1260 nM at Adenosine receptor A3 [4].
Regarding `CCCn1c(=O)c2[nH]c(-c3ccc(OCC(=O)NCCNC(=O)CCNC(=O)CCCCNC(=O)CCCCNC(=O)COc4ccc(/C=C/C5=[N+]6C(=Cc7ccc(-c8cccs8)n7[B-]6(F)F)C=C5)cc4)cc3)nc2n(CCC)c1=O`, the dissociation constant (Kd) on Adenosine receptor A1 [5] was 35.5 nM; on Adenosine receptor A1 [2] it was 33.9 nM.
